From patent US4442090A, “Absorption-promoting compounds, compositions thereof with pharmaceuticals and/or bases for rectal administration and method of use” (Kyoto Yakuhin Kogyo Kabushiki Kaisha, priority 1980, dated 1984)
Values belong to the molecule of their own block, whether it stands above or below them.

What was measured:
[1] = Urinary excretions of β-lactam antibiotics after rectal suppository (rabbit); assay type: in vivo; details: Compound (I) 5%, Witepsol H-15
Description: The absorption into the circulation through the rectum of the rectal suppositories thus prepared was determined by measuring urinary excretion of the pharmacologically-active substance.
Thus, Sarcina lutea and Bacillus subtilis were used as assay organisms for penicillins and cephalosporins, respectively, and the assays were performed by the paper disk method (cultivation at 37° C. for from 15 to 20 hours).

[2] = Urinary excretions of AB-PC after administration of AB-PC rectal suppository (human); assay type: in vivo; details: AB-PC 125 mg (potency), added compound 10%, Witepsol H-15, % of dose
Description: The thus-obtained suppositories were administered to healthy adult male humans from the anus, and the urinary excretions of AB-PC were determined.

SMILES: CCCCN(CCCC)C(=O)CCC(=O)O [Compound 15-Na, N,N--Di-(n-butyl)succinamic acid]
Urinary excretions (%) 0-2 hr. ([1]; Cefmetazole 125 mg (potency)): 44.0% | Urinary excretions (%) 2-4 hr. ([1]; Cefmetazole 125 mg (potency)): 20.0% | Urinary excretions (%) 4-6 hr. ([1]; Cefmetazole 125 mg (potency)): 1.0% | Urinary excretions (%) Total (0-6 hr.) ([1]; Cefmetazole 125 mg (potency)): 65.9%

SMILES: CCCCCCCCCCNC(=O)CCC(=O)O [Compound 12-Na, N--(n-Decyl)succinamic acid]
Urinary excretions (%) 0-2 hr. ([1]; FK-749 125 mg (potency)): 40.1% | Urinary excretions (%) 2-4 hr. ([1]; FK-749 125 mg (potency)): 18.0% | Urinary excretions (%) 4-6 hr. ([1]; FK-749 125 mg (potency)): 2.0% | Urinary excretions (%) Total (0-6 hr.) ([1]; FK-749 125 mg (potency)): 60.1%

SMILES: CCCCCCCCCC(=O)NCCC(=O)O [Compound 16-Na, N--(n-Caprinoyl)-β-alanine]
Urinary excretions (%) 0-2 hr. ([1]; Cefmetazole 125 mg (potency)): 43.1% | Urinary excretions (%) 2-4 hr. ([1]; Cefmetazole 125 mg (potency)): 19.9% | Urinary excretions (%) 4-6 hr. ([1]; Cefmetazole 125 mg (potency)): 2.9% | Urinary excretions (%) Total (0-6 hr.) ([1]; Cefmetazole 125 mg (potency)): 69.1%

SMILES: O=C(O)CCCCCCCCCCCCC(=O)O [Compound 7-Na, 1,12-Dodecamethylene dicarboxylic acid]
Urinary excretions (%) 0-2 hr. ([1]; 6059-S 125 mg (potency)): 42.2% | Urinary excretions (%) 2-4 hr. ([1]; 6059-S 125 mg (potency)): 8.8% | Urinary excretions (%) 4-6 hr. ([1]; 6059-S 125 mg (potency)): 1.0% | Urinary excretions (%) Total (0-6 hr.) ([1]; 6059-S 125 mg (potency)): 52.0% | Urinary excretions of AB-PC (%) (0-6 hr.) [2]: 22.6%

SMILES: CCCCCCCCCC(=O)OCC [Ethyl caprate, reference compound]
Urinary excretions of AB-PC (%) (0-6 hr.) [2]: 3.0%

SMILES: CC(=O)NCC(=O)[O-].[Na+] [N--Acetylglycine Na, N--Acetylglycine, reference compound]
Urinary excretions of AB-PC (%) (0-6 hr.) [2]: 2.5%

SMILES: CCCCCCCCCCCC(=O)N(C)CC(=O)O [Compound 10-Na, N--Lauroylsarcosine]
Urinary excretions (%) 0-2 hr. ([1]; Sulbenicillin 125 mg (potency)): 33.5% | Urinary excretions (%) 2-4 hr. ([1]; Sulbenicillin 125 mg (potency)): 10.0% | Urinary excretions (%) 4-6 hr. ([1]; Sulbenicillin 125 mg (potency)): 1.0% | Urinary excretions (%) Total (0-6 hr.) ([1]; Sulbenicillin 125 mg (potency)): 43.5%

SMILES: CCCCOc1ccc(C(=O)N[C@@H](Cc2ccccc2)C(=O)O)cc1 [Compound 20-Na, N--(4-Butoxybenzoyl)phenylalanine]
Urinary excretions (%) 0-2 hr. ([1]; 6059-S 125 mg (potency)): 46.0% | Urinary excretions (%) 2-4 hr. ([1]; 6059-S 125 mg (potency)): 15.2% | Urinary excretions (%) 4-6 hr. ([1]; 6059-S 125 mg (potency)): 4.1% | Urinary excretions (%) Total (0-6 hr.) ([1]; 6059-S 125 mg (potency)): 65.3%

SMILES: CC1CCC(C(C)C)C(OCC(=O)O)C1 [Compound 11-Na, L-Menthoxyacetic acid]
Urinary excretions of AB-PC (%) (0-6 hr.) [2]: 20.0%

SMILES: Nc1ccc(C(=O)O)cc1 [P--Aminobenzoic acid Na, P--Aminobenzoic acid, reference compound]
Urinary excretions of AB-PC (%) (0-6 hr.) [2]: 4.9%

Continued, values first:

Urinary excretions (%) 0-2 hr. ([1]; FK-749 125 mg (potency)): 41.2% | Urinary excretions (%) 2-4 hr. ([1]; FK-749 125 mg (potency)): 19.0% | Urinary excretions (%) 4-6 hr. ([1]; FK-749 125 mg (potency)): 1.8% | Urinary excretions (%) Total (0-6 hr.) ([1]; FK-749 125 mg (potency)): 62.0%
SMILES: CCCCCCCCNC(=O)c1ccccc1C(=O)O [Compound 14-Na, 2-Carboxy-N--(n-octyl)benzamide]

Urinary excretions (%) 0-2 hr. ([1]; 6059-S 125 mg (potency)): 38.0% | Urinary excretions (%) 2-4 hr. ([1]; 6059-S 125 mg (potency)): 20.0% | Urinary excretions (%) 4-6 hr. ([1]; 6059-S 125 mg (potency)): 3.1% | Urinary excretions (%) Total (0-6 hr.) ([1]; 6059-S 125 mg (potency)): 61.1%
SMILES: O=C(N[C@@H](Cc1ccccc1)C(=O)O)c1ccccc1O [Compound 19-Na, N--(2-Hydroxybenzoyl)phenylalanine]

Urinary excretions of AB-PC (%) (0-6 hr.) [2]: 1.9%
SMILES: c1ccc2occc2c1 [Benzofurane, reference compound]

Urinary excretions of AB-PC (%) (0-6 hr.) [2]: 2.1%
SMILES: c1ccc2nc3ccccc3cc2c1 [Acridine, reference compound]

Urinary excretions of AB-PC (%) (0-6 hr.) [2]: 15.1%
SMILES: O=C(O)COc1cccc2ccccc12 [Compound 8-Na, α-Napthoxacetic acid]

Urinary excretions (%) 0-2 hr. ([1]; Cefsulodin 125 mg (potency)): 30.5% | Urinary excretions (%) 2-4 hr. ([1]; Cefsulodin 125 mg (potency)): 15.0% | Urinary excretions (%) 4-6 hr. ([1]; Cefsulodin 125 mg (potency)): 1.1% | Urinary excretions (%) Total (0-6 hr.) ([1]; Cefsulodin 125 mg (potency)): 45.6% | Urinary excretions of AB-PC (%) (0-6 hr.) [2]: 28.6%
SMILES: CCCCc1ccc(C(=O)O)cc1 [Compound 4-Na, p-Butylbenzoic acid]
